# Test results from publication PMC12566511, “The Evaluation of (1R,4R,7R,10R)-α,α′,α″,α‴-Tetramethyl-1,4,7,10-tetraazacyclododecane-1,4,7,10-tetraacetic Acid (DOTMA) as a Chelator for Zirconium-89” (Molecules, 2025).
# Read-outs that look alike come from different tables or passages of the source.
# What was measured:
# [1] = Solubility of the non-radioactive complex in conventional solvents; assay type: physicochemical; conditions: every conventional solvent tested
# Text: As with our previous studies and to assist in our understanding of the chemical reactivity of this ligand with ^89Zr, we attempted to characterize the Zr-DOTMA complex. Unfortunately, the synthesis of Zr-DOTMA was problematic. […] This insolubility prevented any rigorous characterization using standard analytical techniques such as solution NMR, mass spectrometry, or single crystal X-ray diffraction analysis. Thus, to provide some characterization data, we completed solid-state NMR of Zr-DOTMA and compared its spectrum with that of the DOTMA ligand (Figures S1 and S2). Briefly, the C-13 spectrum of the DOTMA ligand is composed of four groups of resonances consistent with CH3, CH2, CH, and COO^−. The spectra are assigned as COO^− near 182 ppm, CH at 58 ppm, CH2 centered near 48 ppm, and four methyl resonances near 9.5 ppm. The CH3 is attached to a chiral carbon atom at a stereogenic center. In contrast to the ligand spectra, the Zr-DOTMA spectrum is comprised of a major crystalline phase, apparently with Z’ = 1 having resonances consistent with CH3, CH2, CH, and COO at 11, 47, 66, and 179 ppm, respectively. It also has minor resonances near 52, 62, and 174 ppm. The resonances near 174 are composed of at least three unique carbons but, based on linewidth, appear to be crystalline in nature. The methyl groups are magnetically inequivalent.
# [2] = design: method as in PMID 28451334; conditions: normal mice, cited from earlier work
# [3] = cited from earlier work
compound,measurement,setting,value
"C[C@H](C(=O)[O-])N1CCN([C@H](C)C(=O)[O-])CCN([C@H](C)C(=O)[O-])CCN([C@H](C)C(=O)[O-])CC1.[Zr+4] [Zr-DOTMA, Zirconium (1R,4R,7R,10R)-α,α′,α″,α‴-Tetramethyl-1,4,7,10-tetraazacyclododecane-1,4,7,10-tetraacetic Acid]",solubility (in words),[1],insoluble in every conventional solvent tested
CC(=O)N([O-])CCCCCNC(=O)CCC(=O)N([O-])CCCCCNC(=O)CCC(=O)N([O-])CCCCCN.[89Zr+4] [[^89Zr]Zr-DFO],"bone (72 h p.i., %ID/g ± SD)",[2]; bone,0.079 ± 0.006 %ID/g
same,"kidney (72 h p.i., %ID/g ± SD)",[2]; kidney,0.69 ± 0.09 %ID/g
same,"liver (72 h p.i., %ID/g ± SD)",[2]; liver,0.066 ± 0.009 %ID/g
same,LogP,[3]; previously reported results,−2.83 ± 0.03
O=C([O-])CN1CCN(CC(=O)[O-])CCN(CC(=O)[O-])CCN(CC(=O)[O-])CC1.[89Zr+4] [[^89Zr]Zr-DOTA],LogP,[3]; value reported,−3.80 ± 0.04
O=C([O-])CN1CCN(CC(=O)[O-])Cc2cccc(n2)CN(CC(=O)[O-])CC1.[89Zr+4] [[^89Zr]Zr-PCTA],LogP,[3]; previously reported results,−3.09 ± 0.03
